According to ChEMBL document CHEMBL1201862, “PubChem BioAssay data set” (2004):
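Protocol summary: plate cells (96-well), add compound at 5 concentrations, incubate 48 h, interpolate endpoints linearly. GI50: concentration for 50% inhibition of growth.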 Active and inactive are the calls of the source. Cut-off read from the data, not from the text of the source: active = GI50 up to about 1.1 µM and inactive = higher.

Legend:
Assay in all cases: inhibition of tumour cell growth, NCI panel, 48 h
HCC 2998 = system: HCC 2998
NCI/ADR-RES = system: NCI/ADR-RES
OVCAR-5 = system: OVCAR-5
U-251 = system: U-251
CAKI-1 = system: CAKI-1
LOX IMVI = system: LOX IMVI
HT-29 = system: HT-29
NCI-H226 = system: NCI-H226
UACC-62 = system: UACC-62
SR = system: SR
RXF 393 = system: RXF 393
DU-145 = system: DU-145
CCRF-CEM = system: CCRF-CEM
T47D = system: T47D
SNB-19 = system: SNB-19
SK-MEL-2 = system: SK-MEL-2
HCT-15 = system: HCT-15
EKVX = system: EKVX
MDA-MB-435 = system: MDA-MB-435
MOLT-4 = system: MOLT-4

| Compound | GI50 (HCC 2998) | GI50 (NCI/ADR-RES) | GI50 (OVCAR-5) | GI50 (U-251) | GI50 (CAKI-1) | GI50 (LOX IMVI) | GI50 (HT-29) | GI50 (NCI-H226) | GI50 (UACC-62) | GI50 (SR) | GI50 (RXF 393) | GI50 (DU-145) | GI50 (CCRF-CEM) | GI50 (T47D) | GI50 (SNB-19) | GI50 (SK-MEL-2) | GI50 (HCT-15) | GI50 (EKVX) | GI50 (MDA-MB-435) | GI50 (MOLT-4) |
| --- | --- | --- | --- | --- | --- | --- | --- | --- | --- | --- | --- | --- | --- | --- | --- | --- | --- | --- | --- | --- |
| O=C(/N=C1/OC(CN2CCOCC2)CN1C(=O)Nc1ccccc1)Nc1ccccc1 (stereo not given) | > 100 µM (inactive) | > 100 µM (inactive) | > 100 µM (inactive) | > 100 µM (inactive) | > 100 µM (inactive) | > 100 µM (inactive) | > 100 µM (inactive) | > 100 µM (inactive) | > 100 µM (inactive) | > 100 µM (inactive) | > 100 µM (inactive) | > 100 µM (inactive) | > 100 µM (inactive) | 21.4 µM (inactive) | > 100 µM (inactive) | > 100 µM (inactive) | > 100 µM | > 100 µM (inactive) | > 100 µM (inactive) | > 100 µM (inactive) |
| CCCCCCCCCCCCCCCCCCNc1nc(=O)n(C2CC(OP(=O)(O)OCC3OC(n4cc(F)c(=O)[nH]c4=O)CC3O)C(CO)O2)cc1F (stereo not given) | 5.97 µM (inactive) | 30.3 µM (inactive) | 54.2 µM (inactive) | 17.5 µM (inactive) | 26.2 µM (inactive) | 26.1 µM (inactive) | 16.6 µM (inactive) | 98.4 µM (inactive) | 20.5 µM (inactive) | 4.86 µM (inactive) | 11.4 µM (inactive) | 62.2 µM (inactive) | 12.9 µM (inactive) | 31.2 µM (inactive) | 12.1 µM (inactive) | 27.5 µM (inactive) | 37.5 µM | > 100 µM (inactive) | 75.2 µM (inactive) | 14.7 µM (inactive) |
| c1ccc(COc2nc3cc(C45CC6CC(CC(C6)C4)C5)ccc3[nH]2)cc1 | 9.68 µM (inactive) | 7.45 µM (inactive) | 41 µM (inactive) | 8.87 µM (inactive) | 39.7 µM (inactive) | 12.1 µM (inactive) | 3.53 µM (inactive) | 12 µM (inactive) | 7.13 µM (inactive) | > 100 µM (inactive) | 11.3 µM (inactive) | 20.1 µM (inactive) | 10.2 µM (inactive) | 2.83 µM (inactive) | 24.8 µM (inactive) | 11.2 µM (inactive) | 3.72 µM | 13.5 µM (inactive) | 8.95 µM (inactive) | 3.35 µM (inactive) |
| CC1=C(C(=O)OCCc2ccc([N+](=O)[O-])cc2)C(c2cccc([N+](=O)[O-])c2)C(C(=O)OC(C)C)=C(C)N1 (stereo not given) | 75.9 µM (inactive) | 3.33 µM (inactive) | > 100 µM (inactive) | 5.69 µM (inactive) | 4.68 µM (inactive) | 4.72 µM (inactive) | 4.94 µM (inactive) | 2.86 µM (inactive) | 4.48 µM (inactive) | 3.49 µM (inactive) | 2.91 µM (inactive) | > 100 µM (inactive) | 3.57 µM (inactive) | 2.94 µM (inactive) | 12.7 µM (inactive) | 7.62 µM (inactive) | 5.47 µM | 5.43 µM (inactive) | 4.46 µM (inactive) | 2.63 µM (inactive) |
| N#CCCN(C(=O)Nc1ccccc1)[C@H]1CCCC[C@@H]1N(C(=O)Nc1ccccc1)c1ccccc1 | 73.3 µM (inactive) | > 100 µM (inactive) | > 100 µM (inactive) | > 100 µM (inactive) | > 100 µM (inactive) | > 100 µM (inactive) | 43 µM (inactive) | 77.8 µM (inactive) | > 100 µM (inactive) | 19.3 µM (inactive) | 35.6 µM (inactive) | > 100 µM (inactive) | 30.1 µM (inactive) | > 100 µM (inactive) | 22.2 µM (inactive) | > 100 µM (inactive) | > 100 µM | 65.5 µM (inactive) | > 100 µM (inactive) | 25.1 µM (inactive) |
| C/C(=C\c1csc(C)n1)[C@@H]1C[C@@H]2O[C@@H]2CCC[C@H](C)[C@H](O)[C@@H](C)C(=O)C(C)(C)[C@@H](O)CC(=O)O1.C/C(=C\c1csc(C)n1)[C@@H]1C[C@@H]2O[C@]2(C)CCC[C@H](C)[C@H](O)[C@@H](C)C(=O)C(C)(C)[C@@H](O)CC(=O)O1 | 0.00403 µM (active) | 0.0191 µM (active) | 0.108 µM (active) | 0.0055 µM (active) | 0.0101 µM (active) | 0.00272 µM (active) | 0.00107 µM (active) | 0.0455 µM (active) | 0.00767 µM (active) | 0.00397 µM (active) | 0.00266 µM (active) | 0.00604 µM (active) | 0.0478 µM (active) | 0.0366 µM (active) | 0.0191 µM (active) | 0.0246 µM (active) | 0.00218 µM | 0.0252 µM (active) | 0.000973 µM (active) | 0.00738 µM (active) |
| Cc1cccc(NC(=O)CCl)c1 | > 10 µM (inactive) | > 10 µM (inactive) | > 10 µM (inactive) | 2.24 µM (inactive) | > 10 µM (inactive) | 6.19 µM (inactive) | 7.87 µM (inactive) | 7.36 µM (inactive) | 5.64 µM (inactive) | 9.93 µM (inactive) | 8.49 µM (inactive) | > 10 µM (inactive) | 2.52 µM (inactive) | > 10 µM (inactive) | > 10 µM (inactive) | > 10 µM (inactive) | > 10 µM | > 10 µM (inactive) | 9.02 µM (inactive) | > 10 µM (inactive) |
| CC1=C(N2CC2)C(=O)C(C)=C(N2CC2)C1=O | 0.161 µM (active) | 0.0221 µM (active) | 0.296 µM (active) | 0.152 µM (active) | 0.0991 µM (active) | 0.112 µM (active) | 0.175 µM (active) | 0.309 µM (active) | 0.0579 µM (active) | 0.05 µM (active) | 0.151 µM (active) | 0.0469 µM (active) | 0.0434 µM (active) | 0.208 µM (active) | 0.348 µM (active) | 0.306 µM (active) | 0.196 µM | 0.697 µM (active) | 0.288 µM (active) | 0.0753 µM (active) |
